{"source": "patent US9242939B2", "about": "“Compositions and methods for the treatment of respiratory disorders” (CELLIX BIO PRIVATE LIMITED, priority 2012, dated 2016)", "format_in_all_cases": "in vivo, Wistar-Kyoto (WKY) rats", "key": {"CCI rats [1]": {"tested_on": "CCI rats", "assay": "Motor deficits or sedation judged by gait and overall appearance", "conditions": "15 mg/kg DM or equivalent, intraperitoneally once daily for a week", "experimental": "(§1) The drugs DM (15 mg/kg for DM) or the formula I (1-1) (15 mg/kg equivalent of DM) was given intraperitoneally once daily for a week, beginning in the second week after CCI (i.e., day 8 after CCI)."}, "CCI rats [2]": {"tested_on": "CCI rats", "assay": "Mechanical allodynia in CCI (sciatic nerve ligation) neuropathic pain rats", "conditions": "15 mg/kg DM or 15 mg/kg equivalent of DM, intraperitoneally once daily for a week from day 8 after CCI; examined at end of one-week treatment; compared with corresponding baseline", "experimental": "(§2) Adult male WKY rats weighing 200-250 g. Rats were housed individually in each cage and the experiments started at least three days after their arrival. The surgical procedure was performed under pentobarbital anesthesia (50 mg/kg, intraperitoneally). CCI rats were produced by loosely ligating the common sciatic nerve on one side according to the method. Briefly, the right sciatic nerve was exposed in themid-thigh and separated from the adjacent tissue. Four loose ligatures using 4-0 chromic gut sutures were made around the dissected nerve with a 1.0-1.5 mm interval between each pair of ligatures. The skin wound was closed using stainless steel pins. In sham rats, the same surgical procedure was followed except for nerve ligation. DM and formula I (1-1) were diluted in 10% DMSO. The MDSO (10%) was also used for vehicle control.\nas §1"}, "CCI rats [3]": {"tested_on": "CCI rats", "assay": "Thermal hyperalgesia in CCI (sciatic nerve ligation) neuropathic pain rats", "conditions": "15 mg/kg DM or 15 mg/kg equivalent of DM, intraperitoneally once daily for a week from day 8 after CCI; examined on day 15 after CCI; compared with corresponding baseline", "experimental": "as §2, §1"}}}
{"smiles": "COc1ccc2c(c1)[C@]13CCCC[C@@H]1[C@H](C2)N(C)CC3", "note": "[DM, Dextromethorphan]", "values": [{"measurement": "motor deficits or sedation", "setting": "CCI rats [1]", "value": "no motor deficits or sedation"}, {"measurement": "reducing mechanical allodynia", "setting": "CCI rats [2]", "value": "effective only in reducing mechanical allodynia"}, {"measurement": "reducing thermal hyperalgesia", "setting": "CCI rats [3]", "value": "only marginally effective"}]}
{"smiles": "CN1CC[C@@]23CCCC[C@@H]2[C@@H]1Cc1ccc(OC(=O)CCCCCC[C@]2(C)CCSS2)cc13", "note": "[formula I (1-1)]", "values": [{"measurement": "motor deficits or sedation", "setting": "CCI rats [1]", "value": "no motor deficits or sedation"}, {"measurement": "reducing mechanical allodynia", "setting": "CCI rats [2]", "value": "significantly improved mechanical allodynia"}, {"measurement": "reducing thermal hyperalgesia", "setting": "CCI rats [3]", "value": "reduced thermal hyperalgesia"}]}
